Data reported in patent US12552783B2, “Modulators of proteolysis and associated methods of use” (Arvinas Operations, Inc., priority 2018, dated 2026).

Molecular target: KRas (Homo sapiens, UniProt P01116, G12C)
Assay: KRas degradation in NCI-H2030 cells by Western blot, normalized to GAPDH (data of Table 14)
Format: cell-based
Set-up: host or cells: NCI-H2030
Conditions: H2030 cells; for Percent Degradation at Indicated Concentration (μM): 0.3: 0.3 μM; for Percent Degradation at Indicated Concentration (μM): 1: 1 μM; for Percent Degradation at Indicated Concentration (μM): 3: 3 μM; for Dmax: NCI-H2030
How it was run: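 Readout: GAPDH-normalized KRas immunoblot signal, expressed as percent degradation versus 0.1% DMSO vehicle. Treatment: 0.3, 1, 3 μM after 24 h starvation; 24 h (VHL-based) or 72 h (others).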

Row | Percent Degradation at Indicated Concentration (μM): 0.3 | Percent Degradation at Indicated Concentration (μM): 1 | Percent Degradation at Indicated Concentration (μM): 3 | Dmax [%] | Compound
1 | C (C ≤ 35) | C (C ≤ 35) | C (C ≤ 35) | ≤ 35 | CCC(=O)N1CCN(c2nc(NCCC(=O)N(C)CCOCCOCCOCCOc3ccc4c(c3)C(=O)N(C3CCC(=O)NC3=O)C4=O)nc3c(F)c(-c4cc(O)cc5ccccc45)c(Cl)cc23)CC1 (centres unmarked) [compound 49, 3-((6-chloro-8-fluoro-7-(3-hydroxynaphthalen-1-yl)-4-(4-propionylpiperazin-1-yl)quinazolin-2-yl)amino)-N-(2-(2-(2-(2-((2-(2,6-dioxopiperidin-3-yl)-1,3-dioxoisoindolin-5-yl)oxy)ethoxy)ethoxy)ethoxy)ethyl)-N-methylpropanamide]
2 | C (C ≤ 35) | C (C ≤ 35) | C (C ≤ 35) | ≤ 35 | CCC(=O)N1CCN(c2nc(NCCC(=O)N(C)CCOCCOCCOCCOCCOc3ccc4c(c3)C(=O)N(C3CCC(=O)NC3=O)C4=O)nc3c(F)c(-c4cc(O)cc5ccccc45)c(Cl)cc23)CC1 (centres unmarked) [compound 50, 3-((6-chloro-8-fluoro-7-(3-hydroxynaphthalen-1-yl)-4-(4-propionylpiperazin-1-yl)quinazolin-2-yl)amino)-N-(14-((2-(2,6-dioxopiperidin-3-yl)-1,3-dioxoisoindolin-5-yl)oxy)-3,6,9,12-tetraoxatetradecyl)-N-methylpropanamide]
3 | C (C ≤ 35) | C (C ≤ 35) | C (C ≤ 35) | ≤ 35 | CCC(=O)N1CCN(c2nc(NCCC(=O)N(C)CCOCCOc3ccc4c(c3)CN(C3CCC(=O)NC3=O)C4=O)nc3c(F)c(-c4cc(O)cc5ccccc45)c(Cl)cc23)CC1 (centres unmarked) [compound 51, 3-((6-chloro-8-fluoro-7-(3-hydroxynaphthalen-1-yl)-4-(4-propionylpiperazin-1-yl)quinazolin-2-yl)amino)-N-(2-(2-((2-(2,6-dioxopiperidin-3-yl)-1-oxoisoindolin-5-yl)oxy)ethoxy)ethyl)-N-methylpropanamide]

Further lines, the compound ahead of its results:

Row | Compound | Percent Degradation at Indicated Concentration (μM): 0.3 | Percent Degradation at Indicated Concentration (μM): 1 | Percent Degradation at Indicated Concentration (μM): 3 | Dmax [%]
4 | CCC(=O)N1CCN(c2nc(NCCC(=O)N(C)CCOCCOc3ccc4c(c3)C(=O)N(C3CCC(=O)NC3=O)C4=O)nc3c(F)c(-c4cc(O)cc5ccccc45)c(Cl)cc23)CC1 (centres unmarked) [compound 47, 3-((6-chloro-8-fluoro-7-(3-hydroxynaphthalen-1-yl)-4-(4-propionylpiperazin-1-yl)quinazolin-2-yl)amino)-N-(2-(2-((2-(2,6-dioxopiperidin-3-yl)-1,3-dioxoisoindolin-5-yl)oxy)ethoxy)ethyl)-N-methylpropanamide] | C (C ≤ 35) | C (C ≤ 35) | C (C ≤ 35) | ≤ 35
5 | CCC(=O)N1CCN(c2nc(NCCC(=O)N(C)CCOCCOCCOc3ccc4c(c3)C(=O)N(C3CCC(=O)NC3=O)C4=O)nc3c(F)c(-c4cc(O)cc5ccccc45)c(Cl)cc23)CC1 (centres unmarked) [compound 48, 3-((6-chloro-8-fluoro-7-(3-hydroxynaphthalen-1-yl)-4-(4-propionylpiperazin-1-yl)quinazolin-2-yl)amino)-N-(2-(2-(2-((2-(2,6-dioxopiperidin-3-yl)-1,3-dioxoisoindolin-5-yl)oxy)ethoxy)ethoxy)ethyl)-N-methylpropanamide] | C (C ≤ 35) | C (C ≤ 35) | C (C ≤ 35) | ≤ 35
